Consider 19 molecules from patent US11098061B2 (Celgene CAR LLC, priority 2013, dated 2021).

Assay [1] has as its target p38a activated, mitogen-activated protein kinase-activated protein kinase 2 (MAPKAP-K2 or MK-2) enzyme (Homo sapiens (Human), UniProt P49137). Description: MK2 Omnia continuous-read kinase assay for compound potency. The class given is biochemical. The conditions noted are these: [MK-2]=0.4 nM, [ATP]=1.0 mM, [ST3-Sox]=10 μM. The source says: The protocol below describes a continuous-read kinase assay optimized to measure potency of compounds against p38a activated, mitogen-activated protein kinase-activated protein kinase 2 (MAPKAP-K2 or MK-2) enzyme. The mechanics of the assay platform are best described by the vendor (Invitrogen, Carlsbad, Calif.) on their website at the following URL: invitrogen.com/search/global/searchAction. action?resultPage=1 &resultsPerPage=15 &query=om nia&personaFilterTerm=Support+%26+Troubleshoot
Kinase reactions were started with the addition of 40 μL of MK-2 enzyme and monitored every 71 seconds for 30-240 minutes at λex360/λem485 in a Synergy^2, Synergy^4 or Synergy H^4 plate reader from BioTek (Winooski, Vt.). […] Initial velocity (0 minutes to +30 minutes) from each reaction was estimated from the slope of a plot of relative fluorescence units vs time (minutes) and normalized to the no enzyme and no inhibitor control groups for % Inhibition. The resulting % Inhibition values were then plotted against inhibitor concentration to estimate IC50 from log[Inhibitor] vs Response, Variable Slope model in GraphPad Prism from GraphPad Software (San Diego, Calif.).
[MK-2]=0.4 nM, [ATP]=1.0 mM and [ST3-Sox]=10 μM (ATP ^appKM=8-10 μM)

In a further assay the target is MK2 (Homo sapiens (Human), UniProt P49137). Description: MK2 modification assessment by whole protein mass spectrometry. The class given is binding. The conditions noted are these: intact MK2, 60 min, 10-fold excess of compound to protein. On the procedure:
Modification of MK2 is measured by whole protein MS analysis. […] 5 μL aliquots of the samples were diluted with 15 μL of 0.2% TFA prior to micro C4 ZipTipping directly onto the MALDI target using sinapinic acid as the desorption matrix (10 mg/ml in 0.1% TFA:Acetonitrile 50:50). Analysis was performed on a AB Sciex 4800 MALDI TOF/TOF retro fitted with an HM2 detector (CovalX). Percent modification of target MK2 (i.e., the percent of total MK2 modified by the test compound) for each compound was calculated by subtracting the centroid mass of the compound treated MK2 from the centroid mass of the control MK2 and dividing that value with the mass of the compound.

MK2, sequence (P49137 whole entry): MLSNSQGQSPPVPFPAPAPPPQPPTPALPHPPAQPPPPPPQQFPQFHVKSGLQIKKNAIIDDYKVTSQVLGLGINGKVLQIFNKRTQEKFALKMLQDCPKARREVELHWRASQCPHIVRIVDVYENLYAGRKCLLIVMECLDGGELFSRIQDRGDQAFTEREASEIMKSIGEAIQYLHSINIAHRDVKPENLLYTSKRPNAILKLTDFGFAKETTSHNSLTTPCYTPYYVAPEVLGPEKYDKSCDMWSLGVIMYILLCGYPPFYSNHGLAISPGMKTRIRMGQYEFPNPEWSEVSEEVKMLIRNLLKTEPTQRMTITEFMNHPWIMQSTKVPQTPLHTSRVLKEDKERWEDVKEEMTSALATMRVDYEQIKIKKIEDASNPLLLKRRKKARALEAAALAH
p38a activated, mitogen-activated protein kinase-activated protein kinase 2 (MAPKAP-K2 or MK-2) enzyme, sequence (P49137 whole entry): as above

As a reminder, the IC50 is the point on the concentration scale where inhibition reaches its midpoint. On to `C=CC(=O)Nc1cc(C(=O)Nc2cc(-c3cc4c([nH]3)C3(CCCNC3)CNC4=O)ccn2)ccc1F` (racemic) [Compound I-24, 3-acrylamido-4-fluoro-N-(4-(4′-oxo-1′,4′,5′,6′-tetrahydrospiro[piperidine-3,7′-pyrrolo[3,2-c]pyridin]-2′-yl)pyridin-2-yl)benzamide], for which the IC50 in assay [1] was in the range of 101 to 500 nM. At MK2, the “MK2 Mass Mod” value is reported as “F (mass modification of 31-69%)”.

As to `C=CC(=O)NC1CS(=O)(=O)CC1NC(=O)c1ccc2sc3c(c2c1)NC[C@@H](C)NC3=O` (some centres unmarked) [III-49], the IC50 in assay [1] is less than 100 nM. Further, on MK2, the “MK2 Mass Mod” value is “G (mass modification ≤30%)”.

Consider `CN(C)C/C=C/C(=O)Nc1ccccc1NC(=O)c1ccc2cc3n(c2c1)CCNC3=O` [Compound V-5, (E)-N-(2-(4-(dimethylamino)but-2-enamido)phenyl)-1-oxo-1,2,3,4-tetrahydropyrazino[1,2-a]indole-7-carboxamide], for which, in assay [1], the IC50 is more than 1000 nM. For the same molecule, at MK2, the “MK2 Mass Mod” value is “G (mass modification ≤30%)”.

As for `C=CC(=O)N1CCOc2ccc(-c3nccc(-c4cc5c([nH]4)CCNC5=O)n3)cc21` [II-25, 2-(2-(4-acryloyl-3,4-dihydro-2H-benzo[b][1,4]oxazin-6-yl)pyrimidin-4-yl)-6,7-dihydro-1H-pyrrolo[3,2-c]pyridin-4(5H)-one], the IC50 in assay [1] was less than 100 nM. The “MK2 Mass Mod” value at MK2 is “E (mass modification of ≥70%)”.

`C=CC(=O)N1Cc2cccc(NC(=O)c3ccc4cc5n(c4c3)C3(CCC3)CNC5=O)c2C1` [Compound V-48, N-(2-acryloylisoindolin-4-yl)-1′-oxo-2′,3′-dihydro-1′H-spiro[cyclobutane-1,4′-pyrazino [1,2-a]indole]-7′-carboxamide]: the half-inhibitory concentration (IC50) in assay [1] was more than 1000 nM. The “MK2 Mass Mod” value at MK2 was “G (mass modification ≤30%)”.

For `C=CC(=O)Nc1cc(-c2cc(Nc3c(N[C@H](C)c4ccccc4)c(=O)c3=O)ccn2)ccc1OC` [VI-9, (R)—N-(5-(4-((3,4-dioxo-2-((1-phenylethyl)amino)cyclobut-1-en-1-yl)amino)pyridin-2-yl)-2-methoxyphenyl)acrylamide], the IC50 in assay [1] is more than 1000 nM. Also, the “MK2 Mass Mod” value at MK2 was “G (mass modification ≤30%)”.

In the case of `C=CC(=O)N[C@H]1COC[C@H]1NC(=O)c1ccc2cc3n(c2c1)C1(CCC1)CNC3=O` (racemic) [Compound V-49, Cis-N-(4-acrylamidotetrahydrofuran-3-yl)-1′-oxo-2′,3′-dihydro-1′H-spiro[cyclobutane-1,4′-pyrazino[1,2-a]indole]-7′-carboxamide (racemic)], the IC50 in assay [1] was more than 1000 nM. Further, the “MK2 Mass Mod” value on MK2 was “G (mass modification ≤30%)”.

Regarding `C=CC(=O)Nc1cc(-c2cc(-c3cc4c([nH]3)C3(CCCNC3)CNC4=O)ccn2)ccc1N1CCN(C)CC1` (racemic) [Compound I-10, N-(2-(4-methylpiperazin-1-yl)-5-(4-(4′-oxo-1′,4′,5′,6′-tetrahydrospiro[piperidine-3,7′-pyrrolo[3,2-c]pyridin]-2′-yl)pyridin-2-yl)phenyl)acrylamide], the IC50 in assay [1] is less than 100 nM. Moreover, on MK2, the “MK2 Mass Mod” value was “E (mass modification of ≥70%)”.

`C=CC(=O)Nc1cc(-c2cc3c(cn2)CCc2c4c(n(C)c2-3)CC2(CC2)NC4=O)ccc1OCCOC` [II-7, N-(2-(2-methoxyethoxy)-5-(11′-methyl-7′-oxo-5′,6′,7′,8′,10′,11′-hexahydrospiro[cyclopropane-1,9′-pyrido[3′,4′:4,5]pyrrolo[2,3-f]isoquinolin]-2′-yl)phenyl)acrylamide]: the IC50 in assay [1] lay in the range of 101 to 500 nM. In addition, at MK2, the “MK2 Mass Mod” value is listed as “E (mass modification of ≥70%)”.

For the molecule `C=CC(=O)Nc1cc(Nc2c(C)c(NC3CCCNC3)nc3ccnn23)ccc1OCC` (centres unmarked) [IV-1, N-(2-ethoxy-5-((6-methyl-5-(piperidin-3-ylamino)pyrazolo [1,5-a]pyrimidin-7-yl)amino)phenyl)acrylamide], the IC50 in assay [1] was in the range of 501 to 999 nM. For the same molecule, the “MK2 Mass Mod” value on MK2 is “G (mass modification ≤30%)”.

As to `C=CC(=O)NC1CCCCC1NC(=O)c1ccc2cc3n(c2c1)CCNC3=O` (racemic) [Compound V-10, Racemic N-((1S,2R)-2-acrylamidocyclohexyl)-1-oxo-1,2,3,4-tetrahydropyrazino[1,2-a]indole-7-carboxamide], the IC50 in assay [1] is more than 1000 nM. Also, the “MK2 Mass Mod” value on MK2 is given as “G (mass modification ≤30%)”.

On to `C=CC(=O)N1CCc2ccc(NC(=O)c3ccc4cc5n(c4c3)CCNC5=O)cc21` [Compound V-9, N-(1-acryloylindolin-6-yl)-1-oxo-1,2,3,4-tetrahydropyrazino[1,2-a]indole-7-carboxamide], for which the IC50 in assay [1] is 101 to 500 nM. On MK2, the “MK2 Mass Mod” value is “E (mass modification of ≥70%)”.

In the case of `C=CC(=O)N1CC(C)(C)Oc2ccc(-c3ccc4c(ccc5sc6c(c54)NC[C@@H](C)NC6=O)n3)cc21` [III-55, (R)-3-(4-acryloyl-2,2-dimethyl-3,4-dihydro-2H-benzo[b][1,4]oxazin-6-yl)-10-methyl-9,10,11,12-tetrahydro-8H-[1,4]diazepino[5′,6′:4,5]thieno[3,2-f]quinolin-8-one], the IC50 in assay [1] was less than 100 nM. In addition, the “MK2 Mass Mod” value on MK2 is on record as “G (mass modification ≤30%)”.

As to `C=CC(=O)Nc1cc(-c2cc(-c3cc4c(s3)C(=O)N[C@H](C)CN4)ccn2)ccc1OCCOC` [III-d-1, (R)—N-(2-(2-methoxyethoxy)-5-(4-(3-methyl-5-oxo-2,3,4,5-tetrahydro-1H-thieno[3,2-e][1,4]diazepin-7-yl)pyridin-2-yl)phenyl)acrylamide], in assay [1], the IC50 is more than 1000 nM. Besides, the “MK2 Mass Mod” value on MK2 is listed as “E (mass modification of ≥70%)”.

In the case of `C=CC(=O)Nc1cccc2oc(-c3ccc4cc5n(c4c3)CCNC5=O)nc12` [Compound V-31, N-(2-(1-oxo-1,2,3,4-tetrahydropyrazino[1,2-a]indol-7-yl)benzo[d]oxazol-4-yl)acrylamide], the IC50 in assay [1] lay in the range of 501 to 999 nM. Moreover, the “MK2 Mass Mod” value at MK2 is “E (mass modification of ≥70%)”.

Turning to `C=CC(=O)N1CCOc2ncc(-c3nccc(-c4cc5c([nH]4)CCNC5=O)n3)cc21` [II-23, 2-(2-(1-acryloyl-2,3-dihydro-1H-pyrido[2,3-b][1,4]oxazin-7-yl)pyrimidin-4-yl)-6,7-dihydro-1H-pyrrolo[3,2-c]pyridin-4(5H)-one], the IC50 in assay [1] was less than 100 nM. Also, the “MK2 Mass Mod” value on MK2 is “E (mass modification of ≥70%)”.

As to `C=CC(=O)NC1CCCC1NC(=O)c1ccc2cc3n(c2c1)C1(CCC1)CNC3=O` (racemic) [Compound V-55, N-cis-(2-acrylamidocyclopentyl)-1′-oxo-2′,3′-dihydro-1′H-spiro[cyclobutane-1,4′-pyrazino[1,2-a]indole]-7′-carboxamide (racemic)], the IC50 in assay [1] is more than 1000 nM. Also, the “MK2 Mass Mod” value on MK2 was “G (mass modification ≤30%)”.

As for `C=CC(=O)Nc1cc(NC(=O)c2ccc3sc4c(c3c2)NC[C@@H](C)NC4=O)ccc1C(F)(F)F` [III-57, (R)—N-(3-acrylamido-4-(trifluoromethyl)phenyl)-3-methyl-5-oxo-2,3,4,5-tetrahydro-1H-benzo[4,5]thieno[3,2-e][1,4]diazepine-9-carboxamide], the concentration for half-maximal inhibition (IC50) in assay [1] fell in the range of 501 to 999 nM. Besides, the “MK2 Mass Mod” value on MK2 is “G (mass modification ≤30%)”.

For the molecule `C=CC(=O)N1CCOc2ccc(-c3ncc4c(n3)-c3[nH]c5c(c3CC4)C(=O)NCC5)cc21` [II-24, 2-(4-acryloyl-3,4-dihydro-2H-benzo[b][1,4]oxazin-6-yl)-8,9,10,11-tetrahydro-SH-pyrido[3′,4′:4,5]pyrrolo[3,2-h]i quinazolin-7(6H)-one], the IC50 in assay [1] was less than 100 nM. At MK2, the “MK2 Mass Mod” value is given as “E (mass modification of ≥70%)”.
